From patent publication US20230263822A1, “MODULATION OF FACTOR 11 EXPRESSION” (Ionis Pharmaceuticals, Inc., priority 2008, published 2023)
Strand notation (5' to 3'): a small letter for the sugar, then the base; units joined by * are phosphorothioate-linked, units joined directly phosphodiester-linked; [ ] holds rarer units or linkages, { } end groups; capitals alone tell only the bases. e = 2'-O-(2-methoxyethyl) (MOE); [5mC] = 5-methylcytosine; d = 2'-deoxy (DNA)

Experiment: Hematology assays in cynomolgus monkeys (Example 46)
Format: in vivo
Method: Groups, each consisting of two male and two female monkeys, were injected subcutaneously with 25 mg/kg of ISIS 416850, ISIS 449709, ISIS 445522, ISIS 449710, ISIS 449707, ISIS 449711, ISIS 449708, 416858, and ISIS 445531. Antisense oligonucleotide was administered to the monkeys at 25 mg/kg three times per week for week 1 and 25 mg/kg twice per week for weeks 2 to 8. A control group, consisting of two male and two female monkeys was injected subcutaneously with PBS according to the same dosing regimen. Body weights were taken 14 days and 7 days before the start of treatment and were then measured weekly throughout the treatment period. Blood samples were collected 14 days and 5 days before the start of treatment and subsequently several times during the dosing regimen for PT and aPTT measurements, and measurement of various hematologic factors. On day 55, the monkeys were euthanized by exsanguination while under deep anesthesia, and organs harvested for further analysis.

## ISIS 445522: 5-8-5 or 6-8-6 MOE microwalk gapmer (Table 44) (antisense eG*e[5mC]*eA*e[5mC]*eA*dG*dT*dT*dT*d[5mC]*dT*dG*dG*e[5mC]*eA*eG*eG*e[5mC])
Day 17
  HCT: 41%
  MCH: 22.8 pg
  MCHC: 30.9 g/dL
  MCV: 74 fL
  RBC count: 5.6e+06 µL⁻¹
  WBC count: 11000 µL⁻¹
  hemoglobin content: 12.7 g/dL
  monocytes: 3.6%
  neutrophils: 81%
  platelet count: 521 ×100/μL
Day 31
  HCT: 43%
  MCH: 22.4 pg
  MCHC: 30.0 g/dL
  MCV: 75 fL
  RBC count: 5.8e+06 µL⁻¹
  WBC count: 13000 µL⁻¹
  hemoglobin content: 12.9 g/dL
  monocytes: 3.9%
  neutrophils: 66%
  platelet count: 425 ×100/μL
Day 45
  HCT: 41%
  MCH: 22.4 pg
  MCHC: 30.7 g/dL
  MCV: 73 fL
  RBC count: 5.7e+06 µL⁻¹
  WBC count: 10000 µL⁻¹
  hemoglobin content: 12.6 g/dL
  monocytes: 4.4%
  neutrophils: 69%
  platelet count: 403 ×100/μL
Day 55
  HCT: 39%
  MCH: 22.2 pg
  MCHC: 31.0 g/dL
  MCV: 72 fL
  RBC count: 5.4e+06 µL⁻¹
  WBC count: 11000 µL⁻¹
  hemoglobin content: 12.0 g/dL
  monocytes: 3.0%
  neutrophils: 125%
  platelet count: 333 ×100/μL
Day-5
  HCT: 42%
  MCH: 22.5 pg
  MCHC: 30.4 g/dL
  MCV: 74 fL
  RBC count: 5.6e+06 µL⁻¹
  WBC count: 9000 µL⁻¹
  hemoglobin content: 12.7 g/dL
  monocytes: 2.3%
  neutrophils: 84%
  platelet count: 512 ×100/μL
Day-14
  HCT: 42%
  MCH: 22.6 pg
  MCHC: 31.4 g/dL
  MCV: 72 fL
  RBC count: 5.9e+06 µL⁻¹
  WBC count: 10000 µL⁻¹
  hemoglobin content: 13.3 g/dL
  monocytes: 2.1%
  neutrophils: 61%
  platelet count: 433 ×100/μL

## ISIS 445531: 5-8-5 or 6-8-6 MOE microwalk gapmer (Table 44) (antisense eG*eG*e[5mC]*eA*eT*dT*dG*dG*dT*dG*d[5mC]*dA*d[5mC]*eA*eG*eT*eT*eT)
Day 17
  HCT: 43%
  MCH: 22.1 pg
  MCHC: 29.5 g/dL
  MCV: 75 fL
  RBC count: 5.8e+06 µL⁻¹
  WBC count: 17000 µL⁻¹
  hemoglobin content: 12.7 g/dL
  monocytes: 3.4%
  neutrophils: 85%
  platelet count: 380 ×100/μL
Day 31
  HCT: 41%
  MCH: 22.0 pg
  MCHC: 29.7 g/dL
  MCV: 75 fL
  RBC count: 5.6e+06 µL⁻¹
  WBC count: 17000 µL⁻¹
  hemoglobin content: 12.3 g/dL
  monocytes: 4.1%
  neutrophils: 116%
  platelet count: 376 ×100/μL
Day 45
  HCT: 41%
  MCH: 21.6 pg
  MCHC: 29.0 g/dL
  MCV: 75 fL
  RBC count: 5.5e+06 µL⁻¹
  WBC count: 20000 µL⁻¹
  hemoglobin content: 12.0 g/dL
  monocytes: 4.4%
  neutrophils: 93%
  platelet count: 345 ×100/μL
Day 55
  HCT: 41%
  MCH: 21.7 pg
  MCHC: 29.6 g/dL
  MCV: 74 fL
  RBC count: 5.6e+06 µL⁻¹
  WBC count: 15000 µL⁻¹
  hemoglobin content: 12.1 g/dL
  monocytes: 4.1%
  neutrophils: 91%
  platelet count: 319 ×100/μL
Day-5
  HCT: 42%
  MCH: 22.2 pg
  MCHC: 30.0 g/dL
  MCV: 74 fL
  RBC count: 5.7e+06 µL⁻¹
  WBC count: 15000 µL⁻¹
  hemoglobin content: 12.6 g/dL
  monocytes: 2.2%
  neutrophils: 80%
  platelet count: 416 ×100/μL
Day-14
  HCT: 41%
  MCH: 22.2 pg
  MCHC: 30.9 g/dL
  MCV: 72 fL
  RBC count: 5.7e+06 µL⁻¹
  WBC count: 20000 µL⁻¹
  hemoglobin content: 12.6 g/dL
  monocytes: 1.3%
  neutrophils: 60%
  platelet count: 379 ×100/μL

## ISIS 449707: 3-8-3, 4-8-4, 2-10-2, 3-10-3 or 4-10-4 MOE microwalk gapmer (Table 46) (antisense e[5mC]*eA*e[5mC]*eA*dG*dT*dT*dT*d[5mC]*dT*dG*dG*e[5mC]*eA*eG*eG)
Day 17
  HCT: 42%
  MCH: 22.1 pg
  MCHC: 30.0 g/dL
  MCV: 74 fL
  RBC count: 5.7e+06 µL⁻¹
  WBC count: 12000 µL⁻¹
  hemoglobin content: 12.7 g/dL
  monocytes: 3.2%
  neutrophils: 80%
  platelet count: 408 ×100/μL
Day 31
  HCT: 43%
  MCH: 22.1 pg
  MCHC: 29.8 g/dL
  MCV: 74 fL
  RBC count: 5.7e+06 µL⁻¹
  WBC count: 11000 µL⁻¹
  hemoglobin content: 12.7 g/dL
  monocytes: 4.2%
  neutrophils: 89%
  platelet count: 408 ×100/μL
Day 45
  HCT: 43%
  MCH: 22.6 pg
  MCHC: 29.8 g/dL
  MCV: 73 fL
  RBC count: 5.9e+06 µL⁻¹
  WBC count: 12000 µL⁻¹
  hemoglobin content: 12.9 g/dL
  monocytes: 4.0%
  neutrophils: 89%
  platelet count: 424 ×100/μL
Day 55
  HCT: 42%
  MCH: 21.9 pg
  MCHC: 30.0 g/dL
  MCV: 73 fL
  RBC count: 5.8e+06 µL⁻¹
  WBC count: 8000 µL⁻¹
  hemoglobin content: 12.6 g/dL
  monocytes: 4.8%
  neutrophils: 98%
  platelet count: 399 ×100/μL
Day-5
  HCT: 43%
  MCH: 22.2 pg
  MCHC: 29.8 g/dL
  MCV: 75 fL
  RBC count: 5.8e+06 µL⁻¹
  WBC count: 11000 µL⁻¹
  hemoglobin content: 12.8 g/dL
  monocytes: 2.3%
  neutrophils: 106%
  platelet count: 464 ×100/μL
Day-14
  HCT: 40%
  MCH: 22.2 pg
  MCHC: 31.4 g/dL
  MCV: 71 fL
  RBC count: 5.7e+06 µL⁻¹
  WBC count: 13000 µL⁻¹
  hemoglobin content: 12.7 g/dL
  monocytes: 1.3%
  neutrophils: 85%
  platelet count: 383 ×100/μL
